Tests used:
[1] = biological target: Thrombin (Homo sapiens, UniProt P00734); assay: Effect on human protease Thrombin; assay type: biochemical
[2] = biological target: HCV NS3/4A protease genotype 1b mutant A156T (Hepatitis C virus genotype 1b, UniProt Q9WMX2, A1182T); assay: biochemical
[3] = biological target: Plasmin (Homo sapiens, UniProt P00747); assay: Effect on human protease Plasmin; assay type: biochemical; details: read-out: Plasmin IC90
[4] = test system: HCV NS3/4A protease genotype 1b mutant A156T; assay: biochemical; details: A156T vs wild type
[5] = test system: HCV Replicon in Huh7 cells; assay: Inhibition of HCV RNA replication, subgenomic HCV replicon system in Huh7 cells; assay type: cell-based, Hepatitis C virus
[6] = test system: HCV NS3/4A protease genotype 1b mutant V170A; assay type: biochemical; details: V170A vs wild type
[7] = test system: HCV NS3/4A protease genotype 1b mutant A156S; assay type: biochemical; details: A156S vs wild type
[8] = test system: primary human PBM (peripheral blood mononuclear) cells; assay: Cytotoxicity in PBM cells; assay type: cell-based
[9] = test system: CEM cells (a human-T-cell-derived cell line); assay: Cytotoxicity in CEM cells; assay type: cell-based
[10] = test system: Vero cells (African green monkey kidney epithelial cells); assay: Cytotoxicity in Vero cells; assay type: cell-based
[11] = test system: Huh7 cells; assay: Cytotoxicity in Huh7 cells
[12] = test system: HCV NS3/4A protease genotype 1b mutant D168V; assay type: biochemical; details: D168V vs wild type
[13] = test system: HCV NS3/4A protease genotype 1b mutant R155K; assay type: biochemical; details: R155K vs wild type

Chain of Plasmin (P00747 581-810 limits assumed): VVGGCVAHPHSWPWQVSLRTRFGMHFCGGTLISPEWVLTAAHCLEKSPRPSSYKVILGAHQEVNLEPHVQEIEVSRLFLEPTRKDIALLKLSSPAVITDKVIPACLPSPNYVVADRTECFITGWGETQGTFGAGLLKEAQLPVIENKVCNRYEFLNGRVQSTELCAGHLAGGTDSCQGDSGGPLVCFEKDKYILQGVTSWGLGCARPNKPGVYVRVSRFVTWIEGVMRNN
Chain of Plasmin (P00747 97-580 partner limits assumed): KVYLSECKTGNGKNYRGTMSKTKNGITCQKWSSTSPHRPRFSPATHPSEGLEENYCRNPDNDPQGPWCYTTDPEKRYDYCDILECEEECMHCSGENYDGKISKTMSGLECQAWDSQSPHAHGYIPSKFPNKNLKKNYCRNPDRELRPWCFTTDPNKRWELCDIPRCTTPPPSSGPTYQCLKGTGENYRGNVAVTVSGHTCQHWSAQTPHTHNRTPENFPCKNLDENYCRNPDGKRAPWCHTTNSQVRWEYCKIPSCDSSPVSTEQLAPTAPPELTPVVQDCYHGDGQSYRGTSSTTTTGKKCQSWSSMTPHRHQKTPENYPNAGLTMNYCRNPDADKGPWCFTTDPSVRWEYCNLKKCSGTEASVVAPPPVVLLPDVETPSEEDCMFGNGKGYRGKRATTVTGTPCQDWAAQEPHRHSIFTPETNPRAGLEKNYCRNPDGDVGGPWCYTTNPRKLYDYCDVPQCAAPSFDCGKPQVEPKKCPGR

Q: Which “Inhibition of thrombin, in words” value [1] does the source give for `CC(C)(C)NC(=O)N[C@H](C(=O)N1C[C@H]2[C@@H]([C@H]1C(=O)NC(CC1CCC1)C(=O)C(N)=O)C2(C)C)C(C)(C)C` (stereo partly drawn) [Compound 1, boceprevir] here?
A: submicromolar inhibition

Q: What about the EC90 [2] of the same compound?
A: > 100 µM

Q: Which results are given for `CCC[C@H](NC(=O)[C@@H]1[C@H]2CCC[C@H]2CN1C(=O)[C@@H](NC(=O)[C@@H](NC(=O)c1cnccn1)C1CCCCC1)C(C)(C)C)C(=O)C(=O)NC1CC1` [Compound 2, telaprevir]?
A: IC90 [3]: 110 ± 32 µM; EC90 [2]: > 100 µM; Fold Increase (FI) of EC90 [4]: > 130

Q: Which “Anti-HCV activity, in words” value [5] does the source give for `CCCC(NC(=O)C1N(C(=O)[C@@H](NC(=O)[C@@H](NC(=O)c2cnccn2)C2CCCCC2)C(C)(C)C)CC12Cc1ccccc1C2)C(=O)C(=O)NC1CC1` (stereo partly drawn) [Compound 37b] here?
A: complete loss of potency

Q: How did the “Anti-HCV activity, in words” value [5] turn out when `CCCC(NC(=O)C1CCN1C(=O)[C@@H](NC(=O)[C@@H](NC(=O)c1cnccn1)C1CCCCC1)C(C)(C)C)C(=O)C(=O)NC1CC1` (stereo partly drawn) [Compound 37d] was run?
A: inactive

Q: For `CCCC(NC(=O)C1N(C(=O)[C@@H](NC(=O)[C@@H](NC(=O)c2cnccn2)C2CCCCC2)C(C)(C)C)CC12CCCCC2)C(=O)C(=O)NC1CC1` (stereo partly drawn) [Compound 37h], which “Fold Increase (FI) of EC50” value [6] is on record?
A: > 1.2

Q: What about the “Fold Increase (FI) of EC90” value [7] of the same compound?
A: > 10

Q: And the “Toxicity in PBM cells, in words” value [8]?
A: toxicity in the micromolar range

Q: And the “Toxicity in CEM cells, in words” value [9]?
A: toxicity in the micromolar range

Q: What about the “Toxicity in Vero cells, in words” value [10] of the same compound?
A: toxicity in the micromolar range

Q: What about the EC90 [2] of the same compound?
A: > 100 µM

Q: What about the “Fold Increase (FI) of EC50” value [4] of the same compound?
A: > 130

Q: What about the “Fold Increase (FI) of EC90” value [4] of the same compound?
A: > 10

Q: Which “Toxicity toward Huh7 cells, in words” value [11] does the source give for `CCCC(NC(=O)C1N(C(=O)[C@@H](NC(=O)NC2CCCCC2)C(C)(C)C)CC12Cc1ccccc1C2)C(=O)C(=O)NC1CC1` (stereo partly drawn) [Compound 41e] here?
A: toxic

Q: With `CC(C)(C)[C@H](NC(=O)NC1CCCCC1)C(=O)N1CC2(Cc3ccccc3C2)C1C(=O)NC(CC1CCC1)C(=O)C(=O)NC1CC1` (stereo partly drawn) [Compound 41f] as the compound, how does the “Toxicity toward Huh7 cells, in words” value [11] read?
A: toxic

Q: How did the “Fold Increase (FI) of EC50” value [12] turn out when `CC[C@@H]1C[C@]1(NC(=O)[C@@H]1C[C@@H]2CN1C(=O)[C@H](C(C)(C)C)NC(=O)OCC(C)(C)CCCCc1cccc3c1CN(C3)C(=O)O2)C(=O)NS(=O)(=O)C1CC1` [MK-7009, vaniprevir] was run?
A: > 160

Q: What about the “Fold Increase (FI) of EC90” value [12] of the same compound?
A: > 77

Q: And the “Fold Increase (FI) of EC50” value [13]?
A: > 160

Q: What about the “Fold Increase (FI) of EC90” value [13] of the same compound?
A: > 77

Q: And the “Fold Increase (FI) of EC50” value [7]?
A: < 0.16

Q: What about the EC90 [2] of the same compound?
A: > 1 µM

Q: What about the “Fold Increase (FI) of EC90” value [4] of the same compound?
A: > 77

Reference: paper PMC4042666 (Bioorganic & medicinal chemistry letters, 2013)
